Like-named read-outs stand apart in the source and are kept apart here.
Legend:
[1] = system: NCI-H460 (lung carcinoma); assay: Cytostatic activity (cell proliferation); format: cell-based; settings: Homo sapiens, NCI-H460
Experimental: (§1) The 50% cytostatic inhibitory concentration (IC50) causing a 50% decrease in cell proliferation was determined for all obtained compounds toward 9 cancerous cell lines, i.e.,: Capan-1 (pancreatic adenocarcinoma), Hap1 (chronic myeloid leukemia), HCT-116 (colorectal carcinoma), NCI-H460 (lung carcinoma), DND-41 (acute lymphoblastic leukemia), HL-60 (acute myeloid leukemia), K-562 (chronic myeloid leukemia), MM.1S (multiple myeloma), Z-138 non-Hodgkin lymphoma), as well as normal retina (non-cancerous) cells (hTERT RPE-1). Docetaxel, etoposide and stauroporine were used as the reference compounds.
(§2) All assays were performed in 96-well microtiter plates. To each well was added (5–7.5) × 10^4 tumor cells and a given amount of the tested compound. The cells were allowed to proliferate at 37 °C in a humidified, CO2-controlled atmosphere. At the end of the incubation period, the cells were counted in a Coulter counter. The IC50 (50% inhibitory concentration) was defined as the concentration of the compound that inhibited cell proliferation by 50%.

[2] = system: HCT-116 (colorectal carcinoma); assay: Cytostatic activity (cell proliferation); format: cell-based; settings: Homo sapiens, HCT-116
Experimental: as §1, §2

[3] = system: Hap1 (chronic myeloid leukemia); assay: Cytostatic activity (cell proliferation); format: cell-based; settings: Homo sapiens, HAP1
Experimental: as §1, §2

[4] = system: hTERT RPE-1 normal retina (non-cancerous) cells; assay: Cytostatic activity (cell proliferation); format: cell-based; settings: hTERT-RPE1
Experimental: as §1, §2

[5] = system: DND-41 (acute lymphoblastic leukemia); assay: Cytostatic activity (cell proliferation); format: cell-based; settings: DND41
Experimental: as §1, §2

[6] = system: influenza A virus H1N1 subtype; assay: Antiviral assay, influenza A virus H1N1 subtype in MDCK cells; format: cell-based, influenza A virus H1N1 (A/PR/8)
[7] = system: Madin Darby canine kidney cells (MDCK); settings: microscopically detectable alteration of cell morphology
[8] = system: Capan-1 (pancreatic adenocarcinoma); assay: Cytostatic activity (cell proliferation); format: cell-based; settings: Homo sapiens, CAPAN-1
Experimental: as §1, with “RPE-1).” for “RPE-1). Docetaxel, etoposide and stauroporine were used as the reference compounds.”
as §2, with “counter.” for “counter. The IC50 (50% inhibitory concentration) was defined as the concentration of the compound that inhibited cell proliferation by 50%.”

S. aureus ATCC 25923 = assay: Oxacillin MIC reduction (adjuvant) microdilution assay; format: cell-based, Staphylococcus aureus; settings: MIC(OXA)/MIC(OXA+Cpd), compound 0.5 mM, adjuvant activity if A ≥ 4
Experimental: (§3) Since the lack of direct antibacterial activity of the obtained azetidinones was observed, all isomers trans and cis were investigated on their “adjuvant” properties, i.e., an ability to enhance the effectiveness of antibiotics against S. aureus strains. Thus, the compounds were tested in combination with the known β-lactam antibiotic, oxacillin, in the microdilution assays. The ability of the tested azetidinones to reduce minimum inhibitory concentration (MIC) of oxacillin against both, the referenced and the resistant S. aureus strains, was assessed.
(§4) The in-vitro antibacterial property and the capacity of tested compounds to increase the efficacy of antibiotics were evaluated in two Staphylococcus aureus strains, i.e., the reference clonal complex 5 (CC5) methicillin-susceptible (MSSA) strain ATCC 25923, and the methicillin-resistant (MRSA) extensively drug-resistant (XDR) clinical isolate HEMSA-5 [46].
(§5) In order to assess the increase of antibiotic efficacy, the assays were conducted by determining if/to what extent the investigated compounds reduce MICs of oxacillin by means of a serial dilution broth microplate method, in accordance with the CLSI requirements. The concentrations of compounds used in the MICs reduction assay were no greater than 1/4 of their respective MICs to ensure that cell viability was not affected by the intrinsic antibacterial activity of the molecules. Serial two-fold dilutions of oxacillin (Sigma-Aldrich; St. Louis, MI, USA, cat. no. 28221), were prepared in […] of the Mueller–Hinton broth (Merck; Darmstadt, Germany, cat. no. 1102930500). Suitable concentrations of the compounds (total volume […]) were then added. Bacterial suspensions were diluted to OD ¼ 0.5. The resulting suspensions were then diluted 1:100 and added in the volume of […] into the oxacillin serial dilutions with the compounds. The results were read after 20-h incubation at 37 °C.
(§6) The ability of compounds to improve antibiotic efficacy was expressed as the activity gain [A] parameter calculated according to the formula given in Figure 10.
(§7) Figure 10 Activity gain. MICAnt corresponds to the MIC of oxacillin in the absence of a compound tested and MICAnt + Comp refers to the MIC of oxacillin paired with a compound tested.

MRSA HEMSA 5 = assay: as above; format: cell-based, Staphylococcus aureus; settings: MIC(OXA)/MIC(OXA+Cpd), compound 0.5 mM, adjuvant activity if A ≥ 4
Experimental: as §3, §4, §5, §6, §7

in vitro = settings: dog
[9] = system: cytomegalovirus AD-169 strain; assay: Antiviral CPE reduction assay, cytomegalovirus AD-169 strain in HEL cells; format: cell-based, human cytomegalovirus (HCMV); settings: Human betaherpesvirus 5, AD169
human coronavirus (229E) = assay: microbe, parasite or virus in culture; format: cell-based
[10] = system: human embryonic lung (HEL) cells; settings: uninfected host cells of the coronavirus/cytomegalovirus assays

CCOP(=O)(OCC)[C@@H]1[C@H](c2ccc(F)c(C)c2)C(=O)N1Cc1ccccc1 (relative stereo) [cis-11f, cis-N-benzyl-3-(4-fluoro-3-methylphenyl)-4-(diethoxyphosphoryl)azetidin-2-one]
IC50 [1]: 53.6 µM
IC50 [2]: > 100 µM
IC50 [3]: > 100 µM
IC50 [4]: > 100 µM
IC50 [5]: > 100 µM
EC50 ([6]; H1N1, MDCK cells, visual CPE score, read-out: EC50 by visual CPE score, influenza A virus H1N1): 12 µM
EC50 ([6]; H1N1, MDCK, read-out: EC50 by TMS score, influenza A virus H1N1): 8.3 µM
MCC (minimum cytotoxic concentration) [7]: > 100 µM
IC50 [8]: 38.4 µM
Activity Gain [A] (S. aureus ATCC 25923): <0.5
Activity Gain [A] (MRSA HEMSA 5): 1–2
CC50 (in vitro): 39.9 µM

CCOP(=O)(OCC)[C@H]1[C@H](c2ccc(F)c(C)c2)C(=O)N1Cc1ccccc1 (relative stereo) [trans-11f, trans-N-benzyl-3-(4-fluoro-3-methylphenyl)-4-(diethoxyphosphoryl)azetidin-2-one]
IC50 [1]: 37 µM
IC50 [2]: 35.3 µM
IC50 [3]: 46.5 µM
IC50 [4]: 33.5 µM
IC50 [5]: 65.8 µM
EC50 [9]: 54.7 µM
IC50 [8]: 34.8 µM
Activity Gain [A] (S. aureus ATCC 25923): 0.5
Activity Gain [A] (MRSA HEMSA 5): 16
Activity against human coronavirus (229E) relative to ribavirin (human coronavirus (229E)): ~2.5 fold
EC50 (human coronavirus (229E); Human coronavirus 229E, HEL cells, reduction of virus-induced cytopathogenicity by 50%): 45 µM
Effect on normal cell morphology [10]: did not affect normal cell morphology

Reference: publication PMC8348901, “Novel N-Substituted 3-Aryl-4-(diethoxyphosphoryl)azetidin-2-ones as Antibiotic Enhancers and Antiviral Agents in Search for a Successful Treatment of Complex Infections” (International Journal of Molecular Sciences, 2021)
